Results: US12053506B2, “Romo1-derived antimicrobial peptides and variants thereof” (priority 2019, dated 2024)
Values after ≈ are worked out from the molar mass of the structure shown. Non-standard residues stand in square brackets, D forms with d. Residues, ends and D or L forms follow the SMILES beside them. No end group written: not given here.

Legend:
[1] = system: Pseudomonas aeruginosa (ATCC 27853); format: cell-based; settings: for MBC Pseudomonas aeruginosa: Tables 11-15, no unit printed
Outline: (§1)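 Bacteria grown in 3% TSB at 37° C, diluted in 10 mM sodium phosphate/1% TSB to 1×10^5 CFU/ml in wells, exposed to peptides (0–300 μg/ml) for 1 h at 37° C. Mixtures plated on TS agar for 18 h at 37° C; MBC is the lowest concentration giving no colonies.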

[2] = system: Staphylococcus aureus (ATCC 29213); format: cell-based; settings: for MBC Staphylococcus aureus: Tables 11-15, no unit printed
Outline: as §1

[3] = system: methicillin-resistant Staphylococcus aureus (ATCC 33591); settings: for MBC value (μg/ml) against methicillin-resistant Staphylococcus aureus: ATCC 33591, 4 h; for MBC MRSA: Tables 11-15, no unit printed
[4] = system: multidrug-resistant Pseudomonas aeruginosa; settings: 4 h
Experimental: First, each of Pseudomonas aeruginosa (ATCC 27853) and Staphylococcus aureus (ATCC 29213) was cultured in 3% (w/v) TSB (Tryptic Soy Broth) liquid medium at 37° C. and 200 rpm for 4 hours, and then further cultured under the same conditions for 3 hours to a concentration of 5×10^6 CFU/ml. Strain solutions were prepared by diluting each of the further cultured strains with SP (sodium phosphate; 10 mM sodium phosphate, 1% TSB) buffer to a final concentration of 2×10^5 CFU/ml.
Then, each peptide at varying concentrations (0 μg/ml to 300 μg/ml) was dispensed into each well of a 96-well microplate, and 100 μl (1×10^5 CFU/ml) of each of the prepared strain solutions was added thereto, mixed therewith, and allowed to react with the peptide in an incubator at 37° C. for 1 hour.
In addition, 30 g/L of TS (tryptic soy) and 15 g/L of agar were dissolved in distilled water and sterilized, and then 25 ml of the solution was poured onto a 100 mm round plate and solidified at room temperature for one day or more, thereby preparing a TS agar plate. 10 μl of each reaction solution of the peptide and the strain was plated on the TS agar plate at a constant size, and incubated in an incubator at 37° C. for 18 hours, and then colony formation on the plate was checked.
Specifically, each type of bacteria was cultured in 3% (w/v) TSB (Tryptic Soy Broth) liquid medium at 37° C. and 200 rpm for 4 hours, and then further cultured under the same conditions for 3 hours to a concentration of 5×10^6 CFU/ml. Strain solutions were prepared by diluting each of the […] of 2×10^5 CFU/ml.
Then, the KU-5878 peptide at varying concentrations (0 μg/ml to 300 μg/ml) was dispensed into each well of a 96-well microplate, and 100 μl (1×10^5 CFU/ml) of each of the prepared strain solutions was added thereto, mixed therewith, and allowed to react with the peptide in an incubator at 37° C. for 1 hour.
In addition, 10 μl of each reaction solution of the peptide and the strain was plated on the TS agar plate at a constant size, and incubated in an incubator at 37° C. for 18 hours, and then colony formation on the plate was checked.
Meanwhile, the multidrug-resistant Pseudomonas aeruginosa, multidrug-resistant Acinetobacter and multidrug-resistant Klebsiella in Table 2 below were bacteria isolated from patients at Korea University Anam Hospital. […] Then, these bacteria were used in the experiment.

CRPA = experiment: MBC, evaluation of antibacterial activities of KU-5878 variants; format: cell-based; settings: Tables 11-15, no unit printed
mouse red blood cells = format: cell-based
Experimental: Red blood cells were diluted with PBS, centrifuged 3 times at 900 g for 10 minutes, and washed. 100 μl of the diluted red blood cell solution (10% v/v PBS) was dispensed into each well of a 96-well microplate, and KU-5878, KU-5878-K4, KU-5878-K4-D, melittin, magainin 2 or daptomycin was added to each well which was then filled with PBS to 200 μl, followed by reaction by incubation at 37° C. for 1 hour. Then, the supernatant of the reaction solution was separated, and the absorbance at a wavelength of 550 nm was measured using a spectrophotometer. As control, PBS and 0.1% Triton X-100 (Triton X-100) solution were used.
Based on the results of measurement of the absorbance, the degree of red blood cell destruction was calculated according to Equation 1 below, and the results of the calculation are shown in FIG. 6. The % intact RBC=100(%)−[(absorbance of peptide-treated red blood cell solution−absorbance of PBS-treated red blood cell solution)/(absorbance of Triton X-100-treated red blood cell solution−absorbance of PBS-treated red blood cell solution)×100(%)] [Equation 1]

Row | Compound | MBC value (μg/ml) against Pseudomonas aeruginosa ([1]; ATCC 27853, 1 h) | MBC Pseudomonas aeruginosa [1] | MBC value (μg/ml) against Staphylococcus aureus ([2]; ATCC 29213, 1 h) | MBC Staphylococcus aureus [2] | MBC value (μg/ml) against methicillin-resistant Staphylococcus aureus [3] | MBC MRSA [3] | MBC value (μg/ml) against multidrug-resistant Pseudomonas aeruginosa [4] | MBC CRPA (CRPA) | MBC (μg/ml) value against Pseudomonas aeruginosa ([1]; ATCC 27853, 1 h) | MBC (μg/ml) value against Staphylococcus aureus ([2]; ATCC 29213, 1 h) | hemolysis of red blood cells (mouse red blood cells)
1 | KKMMKSGGTFGTFMAIGMGIR [KU-5878-K2] | 8 µg/mL | 8 µg/mL | 8 µg/mL | 8 µg/mL | 8 µg/mL | 8 µg/mL | 8 µg/mL | 6 µg/mL |  |  | 
2 | KTMMQSGGTFGTFMAIGMGIK [KU-5878-R78K] | >300 µg/mL | > 300 µg/mL | >300 µg/mL | > 300 µg/mL | >300 µg/mL | > 300 µg/mL | >300 µg/mL | > 300 µg/mL |  |  | 
3 | KTMMQSGGKFGTFMAIGMGIR [KU-5878-T66K] | 80 µg/mL | 80 µg/mL | 60 µg/mL | 60 µg/mL | 70 µg/mL | 80 µg/mL | 80 µg/mL | 70 µg/mL |  |  | 
4 | RTMMQSGGTFGTFMAIGMGIR [KU-5878-K58R] | 120 µg/mL | 120 µg/mL | 120 µg/mL | 120 µg/mL | 130 µg/mL | 120 µg/mL | 120 µg/mL | 120 µg/mL |  |  | 
5 | ATMMQSGGTFGTFMAIGMGIR [KU-5878-K58A] | >300 µg/mL | > 300 µg/mL | >300 µg/mL | > 300 µg/mL | >300 µg/mL | > 300 µg/mL | >300 µg/mL | > 300 µg/mL |  |  | 
6 | KTMMQSGGTFGTFMAIGMGIA [KU-5878-R78A] | >300 µg/mL | > 300 µg/mL | >300 µg/mL | > 300 µg/mL | >300 µg/mL | > 300 µg/mL | >300 µg/mL | > 300 µg/mL |  |  | 
7 | CC[C@H](C)[C@H](NC(=O)CNC(=O)[C@H](CCSC)NC(=O)CNC(=O)[C@@H](NC(=O)[C@H](C)NC(=O)[C@H](CCSC)NC(=O)[C@H](Cc1ccccc1)NC(=O)[C@@H](NC(=O)CNC(=O)[C@H](Cc1ccccc1)NC(=O)[C@@H](CCCCN)NC(=O)CNC(=O)CNC(=O)[C@@H](CCCCN)NC(=O)[C@@H](CCCCN)NC(=O)[C@H](CCSC)NC(=O)[C@H](CCSC)NC(=O)[C@@H](CCCCN)NC(=O)[C@@H](N)CCCCN)[C@@H](C)O)[C@@H](C)CC)C(=O)N[C@@H](CCCNC(=N)N)C(=O)O [KU-5878-K4-D] (H-K[dK]MM[dK][dK]GG[dK]FGTFMAIGMGIR-OH) |  |  |  |  |  |  |  |  | 3 µg/mL (≈ 1.29 µM) | 3 µg/mL (≈ 1.29 µM) | little hemolysis of red blood cells
8 | KRMMQSGGTFGTFMAIGMGIR [KU-5878-T59R] | 30 µg/mL | 30 µg/mL | 25 µg/mL | 25 µg/mL | 30 µg/mL | 30 µg/mL | 35 µg/mL | 30 µg/mL |  |  | 
9 | KKMMQSGGTFGTFMAIGMGIR [KU-5878-T59K] | 50 µg/mL | 50 µg/mL | 40 µg/mL | 40 µg/mL | 45 µg/mL | 50 µg/mL | 45 µg/mL | 50 µg/mL |  |  | 
10 | KTMMKSGGTFGTFMAIGMGIR [KU-5878-Q62K] | 90 µg/mL | 90 µg/mL | 80 µg/mL | 80 µg/mL | 85 µg/mL | 90 µg/mL | 90 µg/mL | 90 µg/mL |  |  | 
11 | KTMMQKGGTFGTFMAIGMGIR [KU-5878-S63K] | 60 µg/mL | 60 µg/mL | 50 µg/mL | 50 µg/mL | 60 µg/mL | 50 µg/mL | 60 µg/mL | 50 µg/mL |  |  | 
12 | KKMMKKGGTFGTFMAIGMGIR [KU-5878-K3] | 4 µg/mL | 4 µg/mL | 4 µg/mL | 4 µg/mL | 5 µg/mL | 5 µg/mL | 4 µg/mL | 4 µg/mL |  |  | 
13 | KTMMQSGGTFGKFMAIGMGIR [KU-5878-T69K] | 140 µg/mL | 140 µg/mL | 130 µg/mL | 130 µg/mL | 150 µg/mL | 150 µg/mL | 150 µg/mL | 150 µg/mL |  |  | 
